{"source": "paper PMC10726920", "about": "(Cancer Medicine, 2023)", "key": {"[1]": {"system": "relapsed/refractory acute lymphoblastic leukemia", "experiment": "Response (modified IWG criteria) and overall survival, Phase II study NCI-9775", "assay_type": "in vivo, human", "method": "Evaluable patients for response include all patients who had measurable disease present at baseline, began treatment, and had their disease re‐evaluated. Response was assessed by bone marrow aspirates and biopsies performed every 2 months (mandated at the end of Cycle 2, Cycle 4, and Cycle 6). The best responses were captured as overall responses at any time point. Response was evaluated based on modified response criteria by the International Working Group (IWG) recommendations for acute myeloid leukemia (Table S1).[33]\nThis was a phase II trial designed using a Simon design with an interim analysis to evaluate efficacy. Efficacy (success) was defined as a complete response (CR or CR incomplete (i)). All patients meeting the eligibility criteria who signed a consent form and began treatment were deemed evaluable for toxicity. […] Thus, this regimen was to be considered ineffective if the success rate was 10% or less (null hypothesis), while the smallest success rate that would warrant subsequent studies was 30% (i.e., alternate research hypothesis). With a maximum of 26 evaluable patients, this trial had 85% power to detect a CR/CRi rate of 30% or greater (vs. 10% or less) with a one‐sided Type I error of 0.09. This trial was designed with a futility analysis after enrollment of 11 patients; if there were one or fewer successes observed in these first 11 patients, the regimen would be considered ineffective, and the study terminated. If two or more successes were observed, the enrollment would continue to a total of 26 evaluable patients. In the final analysis, if five or more of these 26 evaluable patients had achieved a CR or CRi, this would be considered sufficient evidence of promising activity in this patient population. Otherwise, if four or fewer CR/CRi events were observed, this regimen would not warrant further evaluation in this population.\nThe primary endpoint was the proportion of successes, which was estimated by the number of successes divided by the total number of evaluable patients. Secondary endpoints of duration of response (CR or CRi) and overall survival (OS) were evaluated using Kaplan–Meier techniques; the frequency of proceeding to allogeneic stem cell transplant after achieving response and adverse events (AEs), as evaluated using reported the NCI Common Terminology Criteria for Adverse Events (CTCAE) version 4.0, were presented using descriptive statistics."}, "[2]": {"system": "patients with advanced solid malignancies", "details": "original drug formulation, daily dosing; cited from earlier work"}}, "note": "Several values for one entry are separate records, joined by “and”; a condition that tells them apart may be missing. Equal values may be shown once.", "data": [{"smiles": "CC(C)n1nc(-c2ccc3oc(N)nc3c2)c2c(N)ncnc21", "note": "[sapanisertib]", "values": [{"measurement": "CR or CRi", "setting": "[1]; 3 mg daily 21 of 28 days", "value": "No patient"}, {"measurement": "Median survival", "setting": "[1]; 51.0‐NA 95% CI", "value": 62, "unit": "days"}, {"measurement": "best response stable disease, patients", "setting": "[1]; in vivo", "value": "2 patients and 3 patients"}, {"measurement": "best response stable disease, percent of patients", "setting": "[1]; in vivo", "value": "12.5% and 19%"}, {"measurement": "disease progression, patients", "setting": "[1]; in vivo", "value": 6, "unit": "patients"}, {"measurement": "disease progression, percent of patients", "setting": "[1]; in vivo", "value": 38, "unit": "%"}, {"measurement": "not evaluable because of early discontinuation, patients", "setting": "[1]; in vivo", "value": 7, "unit": "patients"}, {"measurement": "not evaluable because of early discontinuation, percent", "setting": "[1]; in vivo", "value": 44, "unit": "%"}, {"measurement": "maximum tolerated dose (MTD)", "setting": "[2]", "value": 6, "unit": "mg/day"}]}]}
